From EP0193283A1, “Thiazoloquinoline derivatives, process for their preparation and compositions containing them” (BEECHAM GROUP PLC, priority 1985, dated 1986)
In brackets after ≈: the same amount, converted by molar mass.

How the values were obtained:
Type in all cases: cell-based
M. gallisepticum S6 = experiment: In vitro antimycoplasmal MIC; conditions: Mycoplasmoides gallisepticum, Friis' agarose medium or SP4 medium with 0.65% agarose
[1] = tested on: M. hyosynoviae ATCC 25591; experiment: In vitro antimycoplasmal MIC; conditions: Friis' agarose medium or SP4 medium with 0.65% agarose
M. meleagridis 17529 = experiment: In vitro antimycoplasmal MIC; conditions: Friis' agarose medium or SP4 medium with 0.65% agarose
M. bovis NCTC 10131 = experiment: microbe, parasite or virus in culture; conditions: NCTC10131
S.agalactiae SPAI = experiment: Antibacterial MIC on agar; conditions: Streptococcus agalactiae
M. iowae B11 = experiment: In vitro antimycoplasmal MIC; conditions: Friis' agarose medium or SP4 medium with 0.65% agarose
[2] = tested on: M. hyopneumoniae x 5 strains; experiment: In vitro antimycoplasmal MIC; conditions: Mesomycoplasma hyopneumoniae, X5STRAINS, Friis' agarose medium or SP4 medium with 0.65% agarose
M. hyorhinis ATCC 23234 = experiment: In vitro antimycoplasmal MIC; conditions: Mesomycoplasma hyorhinis, ATCC23234, Friis' agarose medium or SP4 medium with 0.65% agarose
M. synoviae ATCC 25204 = experiment: In vitro antimycoplasmal MIC; conditions: Mycoplasmopsis synoviae, ATCC25204, Friis' agarose medium or SP4 medium with 0.65% agarose
S.dysgalactiae FRO 7A = experiment: Antibacterial MIC on agar; conditions: Streptococcus dysgalactiae, FRO7A
[3] = tested on: M. pneumoniae x vs 9 strains; experiment: In vitro antimycoplasmal MIC; conditions: Mycoplasmoides pneumoniae, XVS9STRAINS, Friis' agarose medium or SP4 medium with 0.65% agarose
S.aureus M12 = experiment: Antibacterial MIC on agar; conditions: Staphylococcus aureus
M. dispar NCTC 10125 = experiment: In vitro antimycoplasmal MIC; conditions: Friis' agarose medium or SP4 medium with 0.65% agarose

**Q.** For `CCNCC1CCN(c2cc3c(cc2F)c(=O)c(C(=O)O)c2scc(C)n23)C1` (stereo not shown) [Example 1, 8-[3-[(Ethylamino)methl]-1-pyrrolidinyl]-7-fluoro-1-methyl-5-oxo-5H-thiazolo[3,2-a]-quinoline-4-carboxylic acid], which MIC (M. gallisepticum S6) is on record?
**A.** 0.025 ng/mL (≈ 0.062 nM)

**Q.** And the MIC [1]?
**A.** 0.05 ng/mL (≈ 0.124 nM)

**Q.** And the MIC (M. meleagridis 17529)?
**A.** 0.025 ng/mL (≈ 0.062 nM)

**Q.** And the MIC (M. bovis NCTC 10131)?
**A.** 0.1 ng/mL (≈ 0.248 nM)

**Q.** And the MIC (S.agalactiae SPAI)?
**A.** 1000 ng/mL (≈ 2480 nM)

**Q.** And the MIC (M. iowae B11)?
**A.** 0.025 ng/mL (≈ 0.062 nM)

**Q.** What about the MIC [2] of the same molecule?
**A.** 0.001 ng/mL (≈ 0.00248 nM)

**Q.** And the MIC (M. hyorhinis ATCC 23234)?
**A.** 0.05 ng/mL (≈ 0.124 nM)

**Q.** What about the MIC (M. synoviae ATCC 25204) of the same molecule?
**A.** 0.1 ng/mL (≈ 0.248 nM)

**Q.** And the MIC (S.dysgalactiae FRO 7A)?
**A.** 500 ng/mL (≈ 1240 nM)

**Q.** What about the MIC [3] of the same molecule?
**A.** 0.13 ng/mL (≈ 0.322 nM)

**Q.** What about the MIC (S.aureus M12) of the same molecule?
**A.** 120 ng/mL (≈ 297 nM)

**Q.** What about the MIC (M. dispar NCTC 10125) of the same molecule?
**A.** 0.025 ng/mL (≈ 0.062 nM)
